According to PubChem BioAssay AID1902 (Broad Institute, 2009):
Active and inactive are the calls of the source.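 The calls were made as follows: active = EC50 no more than a set limit of log units above the highest dose; inactive = the rest.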

Biological target: S. pyogenes SKKanGAS, kanamycin survival, BacTiterGlo, 6 h
Experiment: S. pyogenes SKKanGAS kanamycin growth inhibitors – SKKanGAS strain, luminescence, dose confirmation, streptokinase promoter inhibitor project, dose response (AID 1902);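 also: lower survival reflects blocked streptokinase promoter driving kanamycin resistance gene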

Row | SMILES | EC50
1 | CCC(C)(C)c1ccc(OCCCC[n+]2cccc(C)c2)c(C(C)(C)CC)c1 | 7.73 µM
2 | O=C1NC(=O)/C(=C/c2ccccc2Oc2ccc(Cl)cc2)S1 | 6.33 µM
3 | COC(=O)c1ccc(CSc2n[nH]c(=S)s2)o1 | 3.25 µM
4 | CCOc1ccc2nc(NC(=O)CN3CCC(n4nnc5cc(C(F)(F)F)ccc54)CC3)sc2c1 | 2.43 µM
5 | CCOC(=O)c1c(NC(=O)c2cccs2)sc2c1CCN(C(=O)OCC)C2 | 13 µM
6 | O=C(CSc1nc(-c2ccc(Cl)cc2)[nH]c(=O)n1)Nc1cccc(Cl)c1 | 2.35 µM
7 | Cc1nnc(-c2ccccc2)c(=O)n1/N=C/c1c(O)ccc2ccccc12 | 4.37 µM
8 | Cn1c(=O)c(NCCc2ccccc2)c2c3c(cccc31)C(=O)c1ccccc1-2 | 8.86 µM
9 | CC(C)(C)C(=O)N1N=C(c2ccc(NS(C)(=O)=O)cc2)CC1c1cccs1 (centres undefined) | 7.49 µM
10 | CCCCc1ccc(NC(=O)NCc2ccccn2)cc1 | > 15 µM (inactive)
11 | O=C(Nc1nnc(C2=COCCO2)o1)c1cccc(C(F)(F)F)c1 | 1.73 µM
12 | Cc1ccc(C(=O)/C=C/C(=O)c2ccc(C)cc2)cc1 | 3.61 µM
13 | O=S(=O)(c1ccc(F)cc1)c1nc(-c2ccccc2)oc1N1CCOCC1 | > 15 µM (inactive)
14 | CC(C)(C)C1CCC2(CC1)C(C#N)=C(SCC(=O)Nc1ccccc1)NC(=O)C2C#N (centres undefined) | 4.25 µM
15 | COc1ccc(-c2n[nH]c(C)c2-c2ccc(Cl)cc2)c(O)c1 | 6.52 µM
16 | CCc1c(C)sc2nc(C(C)C)nc(SCC(=O)N3CCc4ccccc4C3)c12 | 7.89 µM
17 | CCc1ccccc1NC(=O)NC(C)c1ccc2c(c1)OCO2 (centres undefined) | > 15 µM (inactive)
18 | Cc1[nH]nc(Nc2ccc(C(C)C)cc2)c1[N+](=O)[O-] | 13.8 µM
19 | COc1cc(/C=C/c2ccc3cccc(O)c3n2)cc(OC)c1OC | 3.66 µM
20 | Cc1cc(N/N=C/c2cccc(Br)c2)nc2ccccc12 | 5.25 µM
21 | CN1C(=O)/C(=C/c2cccn2-c2ccc3ccccc3c2)C(=O)NC1=S | 5.74 µM
22 | CCc1noc(C)c1C(=O)OCC(=O)NC(=O)c1ccccc1 | > 15 µM (inactive)

Row | SMILES | EC50
23 | Cc1nnc(SCC2=C(C(=O)O)N3C(=O)C(NC(=O)Cn4nc(C)c(Cl)c4C)C3SC2)s1 (centres undefined) | < 0.06 µM
24 | Cc1csc2nc(CSc3nc4ccccc4o3)c(Br)n12 | 6.42 µM
25 | Oc1ccc(Cl)cc1C1=NNC(c2ccc(Cl)cc2)C1 (centres undefined) | 1.1 µM
26 | Cc1ccc(S(=O)(=O)N2c3ccccc3OCC2C(C)(C)C)cc1 (centres undefined) | 2.59 µM
27 | O=C1C=CC(=O)N1CCNc1ncc(C(F)(F)F)cc1Cl | 10.4 µM
28 | Cc1ccc(C(=O)C(c2ccccc2)N2Cc3ccccc3C2=N)cc1 (centres undefined) | 5.75 µM
29 | CCCCCC(=O)NNC(=O)c1c(O)c2ccccc2n(CC)c1=O | 1.36 µM
30 | COc1cc(/C=C/C(=O)OC2CC3CCC2(C)C3(C)C)ccc1O (centres undefined) | 7.08 µM
31 | N=C1S/C(=C\c2ccc(-c3cccc(Cl)c3)o2)C(=O)N1c1nccs1 | < 0.06 µM
32 | O=C(Nc1cccc(C(F)(F)F)c1)c1cc2c(=O)c3ccccc3oc2nc1C(F)(F)F | 7.27 µM
33 | CCOC(=O)C1=Nc2ccccc2C1=[N+]=[N-] | 0.248 µM
34 | COc1cccc(C(=O)NC(=S)Nc2ccccc2N2CCCCC2)c1 | > 15 µM (inactive)
35 | C=CCn1c(NC(=O)c2ccc(C)cc2)nc2ccccc21 | 9.75 µM
36 | Cc1cccc(NC(=O)c2cc3n(n2)C(C(F)(F)F)CC(c2ccc4c(c2)OCO4)N3)c1 (centres undefined) | 7.23 µM
37 | Cc1nn(-c2ccccc2)c(C)c1/C=N/NC(=O)c1cc(-c2ccc(Br)s2)[nH]n1 | 4.23 µM
38 | c1ccc2c(-c3c[nH]c4ccccc34)c3ccccc3nc2c1 | 10.9 µM
39 | COc1ccc(CC(=O)NC(=S)NNC(=O)COc2c(C)cccc2C)cc1 | 0.134 µM
40 | COC(=O)c1ccc(CSc2cc(C)c3cc(C)cc(C)c3n2)o1 | 4.86 µM
41 | O=C(/C=C/c1cccc(C(F)(F)F)c1)Nc1cccc(C(F)(F)F)c1 | 3.3 µM
42 | Oc1ccccc1/C=N/Nc1nc2ccccc2o1 | 2.42 µM
43 | Cc1ccc(SC/C(O)=C(\C#N)c2nc3ccccc3s2)cc1 | 2.83 µM
44 | CCc1ccc(CNc2ccc3c(c2)ncn3C(C)(C)C)cc1 | 3.3 µM

Row | SMILES | EC50
45 | CC1CC(NC(=O)c2c(O)nc3sccn3c2=O)CC(C)(C)C1 (centres undefined) | 7.03 µM
46 | Cc1cccc(C)c1OC(=O)C(c1ccccc1)c1ccccc1 | 3.17 µM
47 | C=C(CC1([C@@H](NP(=O)(c2ccccc2)c2ccccc2)[C@H]2C[C@@H]2CCCC)CC1)c1ccccc1 | 3.64 µM
48 | Cc1cc(-c2c(C)[nH]n(-c3ccc(Cl)cc3)c2=O)n[nH]1 | 1.78 µM
49 | O=C(N/N=C/c1cc(Br)cc(Br)c1O)c1ccncc1 | 0.658 µM
50 | CCCCN(CC)S(=O)(=O)c1ccc(C(=O)Nc2nnc(-c3ccccc3Cl)o2)cc1 | 0.226 µM
51 | CC(C)(C)[C@H]1CCC(=O)N([C@H](CSc2ccccc2)Cc2ccccc2)CC1 | 3.51 µM
52 | CC1(C)S[C@@H]2[C@H](NC(=O)COc3ccccc3)C(=O)N2C1C(=O)OCc1cc2ccccc2n1S(=O)(=O)c1ccccc1 (some centres undefined) | 3.33 µM
53 | Oc1ccccc1-c1nc2c3ccccc3c3ccccc3c2[nH]1 | 2.43 µM
54 | COC(=O)c1c(C)[nH]c(C(=O)OCC(=O)N(CC(C)C)c2c(N)n(Cc3ccccc3)c(=O)[nH]c2=O)c1C | 9.34 µM
55 | CCOC(=O)c1nn(-c2cccc(OC)c2)c2nc(Nc3ccccc3)cc(=O)n12 | 4.15 µM
56 | COc1cccc(-c2nc(NC3CCCC3)c3ccccc3n2)c1O | 5.84 µM
57 | COc1cccc(N/N=C/c2cccc(Br)c2O)c1 | 15.6 µM
58 | CCN1CCN(C(=O)N[C@@H](C(=O)N[C@@H]2C(=O)N3[C@@H]2SC(C)(C)[C@@H]3C(=O)O)c2ccccc2)C(=O)C1=O | 0.285 µM
59 | CC(=O)c1c(O)cc(O)c(C(C)=O)c1O | 2.64 µM
60 | O=C(CNC(=O)c1ccc(F)cc1)N/N=C/c1cc(Br)ccc1OCc1ccccc1 | 12.2 µM
61 | CCCOc1ccc(/C(O)=C2/C(=O)C(=O)N(c3ccccn3)C2c2ccc(OC)cc2)cc1C (centres undefined) | 6.28 µM
62 | COc1ccc(C(=O)NC(=S)NNC(=O)COc2ccccc2)cc1 | 0.666 µM
63 | Cc1ccc(C(c2cc(Cl)c3cccnc3c2O)N2CCN(C)CC2)cc1 (centres undefined) | 1.84 µM
64 | Cc1cccc(Nc2nc(-c3ccc(F)c(C)c3)cs2)n1 | 8.5 µM
65 | O=Nc1c(O)c2ccccc2c2ccccc12 | 2.34 µM
66 | COc1ccc(Cl)cc1C(=O)NNC(=S)NC(=O)c1cc(-c2ccccc2)nc2ccccc12 | 0.081 µM

Row | SMILES | EC50
67 | CN(C)c1ccc(/C=C/c2ccc3ccccc3[n+]2C)cc1 | 7.2 µM
68 | CC(C)(C)c1ccc(C(=O)N2CCN(C(=O)c3ccco3)CC2)cc1 | > 15 µM (inactive)
69 | Cc1c2ccncc2c(C)c2c1[nH]c1ccccc12 | 3.02 µM
70 | Cc1ccc(C(=O)C2=C(O)C(=O)N(Cc3ccco3)C2c2cccc(Br)c2)o1 (centres undefined) | 6.67 µM
71 | COc1ccc(C#Cc2ccc3c(=O)c4ccccc4n(C)c3c2)cc1 | 13.9 µM
72 | O=[N+]([O-])/C=C/c1c(OCc2ccccc2)ccc2ccccc12 | 1.63 µM
73 | Cc1ccc(Cn2cc(/C=N/NC(=O)Cc3nnc(NC(=O)c4ccc(C)cc4)s3)c3ccccc32)cc1 | 4.24 µM
74 | COc1ccc(/C=c2\s/c(=C/C(=O)c3ccc(C)cc3)[nH]c2=O)cc1OC | 9.28 µM
75 | CC1(C)S[C@@H]2[C@H](NC(=O)COc3ccccc3)C(=O)N2C1C(=O)OCc1ccccc1 (some centres undefined) | 1.04 µM
76 | Clc1ccc(SCc2cc(Cl)nc(-c3ccccc3)n2)cc1 | > 15 µM (inactive)
77 | Cc1c(C(=O)Nc2nonc2-c2ccc(F)cc2)oc2ccc(F)cc12 | 4.06 µM
78 | CCOC(=O)c1cnc(-n2cc(C)cn2)nc1Nc1ccccc1OCC | 4.18 µM
79 | Nc1nc(NC(=O)/C=C/c2ccc(F)cc2)nn1-c1ccccc1 | 2.62 µM
80 | CC(C)(C)c1ccc(S(=O)(=O)N2CCC(c3nc4ccc(Cl)cc4[nH]3)CC2)cc1 | 5.11 µM
81 | Cc1ccc(C(=O)NC(=S)NNC(=O)c2cccc([N+](=O)[O-])c2)cc1 | 1.69 µM
82 | CC(=O)OCCCNc1cc(Sc2nc3ccccc3s2)c2nonc2c1[N+](=O)[O-] | 2.43 µM
83 | O=S(=O)(Nc1ccc(N=Nc2ccc(O)c3ccccc23)cc1)c1ccccc1 | 7.08 µM
84 | CC(C)(C)Nc1nc(-c2ccccn2)nc2ccccc12 | 0.215 µM
85 | Cc1cccc(C(=O)NCC(=O)N2CCOCC2)c1 | > 15 µM (inactive)
86 | Clc1ccc(COn2c(-c3ccc(Cl)cc3)nc3ccccc32)cc1 | 6.12 µM
87 | Cc1ccc(Nc2cc(C)nn2-c2nc(C)cc(=O)[nH]2)cc1 | < 0.06 µM
88 | O=C(CNC(=O)c1ccco1)NCc1nc2ccccc2[nH]1 | > 15 µM (inactive)

Row | SMILES | EC50
89 | CC(C)(C)c1ccc(OCCCC(=O)NC2=NCCS2)cc1 | 3.87 µM
90 | COc1ccc(NS(=O)(=O)c2cccc(NC(=O)CCC(=O)c3ccc(Cl)cc3)c2)cc1 | 7.85 µM
91 | Cc1nn(C)c(C(=O)Nc2ccc(S(=O)(=O)NC34CC5CC(CC(C5)C3)C4)cc2)c1Br | 4.9 µM
92 | Cc1nnc(Sc2cc(NCCCO)c([N+](=O)[O-])c3nonc23)s1 | 7.78 µM
93 | O=c1/c(=C\c2cccc(O)c2)sc2nc(-c3ccccc3)c(-c3ccccc3)n12 | 7.63 µM
94 | O=C(Nc1ccc([N+](=O)[O-])cc1)Nc1nc(-c2ccc(Cl)s2)cs1 | 2.95 µM
95 | Brc1ccc(Nc2ncnc3[nH]ncc23)cc1 | 8.45 µM
96 | N=C1/C(=C/c2cccs2)C(=O)N=C2SN=C(SCc3ccccc3)N12 | 1.83 µM
97 | Cc1cc(C(=O)N/N=C/c2cc(N=Nc3ccccc3)ccc2O)n[nH]1 | 2.02 µM
98 | O=c1c2cc(N3CCOCC3)ccc2[nH]c(=S)n1CCc1ccccc1 | 0.482 µM
99 | CCN(c1ccccc1)S(=O)(=O)c1ccc(C(=O)Nc2nnc(CSC)o2)cc1 | 3.7 µM
100 | CCn1c(=O)n(CC)c2cc(N3CCCC3)c(NC(=O)c3cc(Br)ccc3OC)cc21 | 4.28 µM
101 | Nc1nonc1-n1nnc(C(=O)N/N=C/c2cc(Cl)ccc2O)c1CN1CCCCCC1 | 5.76 µM
102 | C=C(C)COc1ccc(-c2n[nH]c(C)c2-c2ccc(Br)cc2)c(O)c1 | 2.21 µM
103 | Cc1cc2c(cc1C)CSC(c1c(O)ccc3ccccc13)SC2 | 2.08 µM
104 | CCOC(=O)c1cnc(-n2nc(C)cc2C)nc1NNc1cc(C)nc(-c2ccccc2)n1 | 0.237 µM
105 | O=C(O)c1ccccc1N/N=C/c1cc(Br)cc(Br)c1O | 7.96 µM
106 | O=S(=O)(NCc1nnc2c(C(F)(F)F)cc(Cl)cn12)c1ccccc1 | > 15 µM (inactive)
107 | CCOc1ccc(/C=N/NC(=O)Cc2csc(Nc3cccc(C(F)(F)F)c3)n2)cc1 | 6.35 µM
108 | CCSc1nnc(NC(=O)c2nc(-c3ccccc3)n(-c3ccccc3)n2)s1 | 3.49 µM
109 | CCCCCCCCCCCCCCCC(O)C(N)CO (centres undefined) | 2.2 µM
